{"source": "patent EP2057188B1", "about": "(priority 2006, dated 2008)", "key": {"[1]": {"target": "T1, human GIP receptor (Homo sapiens, UniProt P48546)", "T1 sequence (P48546 22-466 limits assumed)": "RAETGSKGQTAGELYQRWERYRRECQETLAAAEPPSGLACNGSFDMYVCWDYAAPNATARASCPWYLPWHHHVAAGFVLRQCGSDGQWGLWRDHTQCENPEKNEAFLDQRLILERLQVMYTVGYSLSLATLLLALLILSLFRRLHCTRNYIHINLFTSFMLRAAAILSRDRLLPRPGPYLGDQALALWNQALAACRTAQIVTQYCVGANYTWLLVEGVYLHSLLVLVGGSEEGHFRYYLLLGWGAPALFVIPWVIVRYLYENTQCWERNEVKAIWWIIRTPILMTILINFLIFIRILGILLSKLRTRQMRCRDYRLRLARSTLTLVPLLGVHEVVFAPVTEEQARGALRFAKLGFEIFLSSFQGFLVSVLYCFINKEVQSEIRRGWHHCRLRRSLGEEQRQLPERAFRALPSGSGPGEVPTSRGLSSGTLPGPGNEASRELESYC", "assay": "biochemical", "conditions": "read-out: %Inh 10nM"}, "[2]": {"target": "T1, human GIP receptor"}, "[3]": {"conditions": "at doses of 100µg; cited from earlier work"}, "[4]": {"assay": "Calcium lowering (GIP hybrids, Figure 23B)", "format": "in vivo", "conditions": "summary of properties", "procedure": "(§1) In Figure 13B bars represent mean +/- sd. Peptide was injected IP at t = -5 minutes into 4-hour fasted NIH/Swiss female mice. Gavage (1.5g/kg) was given at t = 0. […] In Figure 17 points represent mean +/- sem. […] Samples were taken at t=60, t=120 and t=180."}, "[5]": {"assay": "Glucose in rats (summary table)", "format": "in vivo", "conditions": "summary of properties"}, "[6]": {"assay": "Body composition in DIO mice", "format": "in vivo, C57BL/6J mice", "conditions": "summary of properties", "source_text": "An exemplary assay can be one that involves utilization of a diet-induced obese (DIO) mouse model for metabolic disease. […] During the study, the mice can continue to eat their high-fat diet. Water can be provided ad libitum throughout the study.\nDIO mice can be implanted with subcutaneous (SC) intrascapular osmotic pumps to deliver either vehicle (50% dimethylsulfoxide (DMSO) in water) or a compound of the invention. […] Body weights and food intake can be measured over regular intervals throughout the study periods. Respiratory quotient (RQ, defined as CO2 production ÷ O2 consumption) and metabolic rate can be determined using whole-animal indirect calorimetry (Oxymax, Columbus Instruments, Columbus, OH). The mice can be euthanized by isoflurane overdose, and an index of adiposity (bilateral epididymal fat pad weight) measured. Moreover, prior to determination of epididymal weight, body composition (lean mass, fat mass) for each mouse can be analyzed using a Dual Energy X-ray Absorptiometry (DEXA) instrument per manufacturer's instructions (Lunar Piximus, GE Imaging System)."}, "[7]": {"assay": "Circulatory system effects in conscious rats by telemetry", "format": "in vivo, Harlan Sprague Dawley rats"}, "[8]": {"format": "in vivo, NIH/Swiss mice", "procedure": "In Figure 3A, bars represent mean ± sd, n=6-10. […] Gavage (1.5g/kg) was given at t=0. Sample was taken at t=30 min. […] In Figure 3B, points represent mean ± sem, n=8-15.\nas §1"}, "[9]": {"conditions": "for acute food intake: IP at t=0, consumed at t=30, 60, 120 min"}, "[10]": {"format": "in vivo, db/db mice", "conditions": "Figure 4; GIP at a 10 fold higher dose", "procedure": "Peptide was injected IP at t=0 immediately following baseline sample into 2-hour fasted db/db mice."}, "[11]": {"format": "in vivo, NIH/Swiss mice", "remark": "listed apart in the source", "procedure": "Gavage (1.5g/kg) was given at t=0. Sample was taken at t=30 min."}, "[12]": {"target": "cardiomyocyte Gs- and Gi-coupled receptors", "assay": "cAMP assay in neonatal cardiomyocytes", "format": "cell-based, rat", "procedure": "Activation of cardiomyocyte Gs- and Gi-coupled receptors was determined as a measure of cAMP production.\nNeonatal cardiomyocytes were isolated using a commercially available system. […] Sprague Dawley neonatal rats (1-2 days old) were decapitated and the beating heart dissected out into digestion buffer (Cellutron D1 buffer) to dissociate cells. […] The resuspended cells incubated in buffer (Cellutron D3 buffer) for sufficient time to allow optimal dispersion and minimize the need for pipetting to break up clumps. Cells released from the first 2 digestions were discarded since a significant portion of these is red blood cells. Resuspended cells were filtered and allowed to pre-plate for 1 hour on plastic in an incubator in NS media (Cellutron, NJ) in order to remove fibroblasts. After 1 hour of pre-plating, floating cells are removed and the flask rinsed with NS media. The floating cells and the cells in the rinse media were combined and counted. Residual red blood cells, which are smaller that the cardiac myocytes, were not counted.\nAt Day 1, the NS media was replaced with fresh NS media.\nDose response was determined.\nFor Gs assays the positive control was 10uM forskolin and negative control was buffer. For Gi assays the positive control was buffer and the negative control was 10uM forskolin."}, "[13]": {"assay": "Gastric emptying (GIP hybrids, Figure 23A)", "format": "in vivo", "conditions": "summary of properties", "procedure": "as §1"}, "[14]": {"format": "in vivo, rats", "parameters": "AUC Change in Insulin Pre IVGTT / AUC Change in Insulin Post IVGTT: unit not given beside the values", "conditions": "for insulin levels prior to the glucose challenge / insulinotropic response to an intravenous glucose challenge: 100 pmol/kg/min infusion dose in rats"}, "[15]": {"format": "in vivo, C57BL/6 mice", "conditions": "for body weight change in diet-induced-obese mice: infused via osmotic pump for 2 weeks, high-fat diet"}, "[16]": {"target": "human GIP receptor", "conditions": "read-out: GIP RBA; GIP receptor binding; RIN where stated; unit nM printed for these values"}, "[17]": {"assay": "IVGTT duration of action assay, single SC injection", "format": "in vivo, rat", "conditions": "insulin levels at 0-30 minutes as AUC; rat", "procedure": "In the typical IVGTT assays the test sample was administered by IV infusion. The IV infusion of sample was initiated at t = -30min and continued through t = 90. IV glucose was given at t = 0. To determine a duration of action using the IVGTT assay, the sample was injected SC as a single injection at one time point indicated (e.g., t = -240, -120, -60 or -30) prior to administration of glucose. IV glucose was given at t = 0."}, "[18]": {"conditions": "80 nmol/kg, remote intravenous dosing"}, "[19]": {"conditions": "cAMP production, experiment of Figures 18A/18B"}, "[20]": {"conditions": "cardiomyocyte Gs-coupled receptor activation, three independent experiments"}}, "note": "pEC(50): −log10 of the molar value. Like-named read-outs stand apart in the source and are kept apart here. Ends that are not written are not given here."}
{"compound": "CC[C@H](C)[C@H](NC(=O)[C@H](CO)NC(=O)[C@H](Cc1ccc(O)cc1)NC(=O)[C@H](CC(=O)O)NC(=O)[C@H](CO)NC(=O)[C@@H](NC(=O)[C@H](Cc1ccccc1)NC(=O)[C@@H](NC(=O)CNC(=O)[C@H](CC(=O)O)NC(=O)[C@H](C)NC(=O)[C@@H](N)Cc1ccc(O)cc1)[C@@H](C)O)[C@@H](C)CC)C(=O)N[C@@H](C)C(=O)N[C@@H](CCSC)C(=O)N[C@@H](CC(=O)O)C(=O)N[C@@H](CCCCN)C(=O)N[C@H](C(=O)N[C@@H](Cc1c[nH]cn1)C(=O)N[C@@H](CCC(N)=O)C(=O)N[C@@H](CCC(N)=O)C(=O)N[C@@H](CC(=O)O)C(=O)N[C@@H](Cc1ccccc1)C(=O)N[C@H](C(=O)N[C@@H](CC(N)=O)C(=O)N[C@@H](Cc1c[nH]c2ccccc12)C(=O)N[C@@H](CC(C)C)C(=O)N[C@@H](CC(C)C)C(=O)N[C@@H](C)C(=O)N[C@@H](CCC(N)=O)C(=O)N[C@@H](CCCCN)C(=O)N1CCC[C@H]1C(=O)N[C@@H](CCCCN)C(=O)N[C@@H](CCCCN)C(=O)N[C@H](C(=O)N[C@@H](CCCNC(=N)N)C(=O)N[C@@H](Cc1ccc(O)cc1)C(=O)N[C@@H](CO)C(N)=O)[C@@H](C)CC)C(C)C)[C@@H](C)CC", "note": "[Compound 0601GIP4390]", "values": [{"measurement": "inhibition at 0.01 µM", "setting": "[1]", "result": 90.3, "unit": "%"}]}
{"compound": "HGEGTLISDYSIAMDKIHQQDFVNWLLAQKPKKIRYS-NH2 [0601 GIP48 43]", "values": [{"measurement": "(%Inh 10nm,GIP-LF Assay)", "setting": "[2]", "result": "3(%Inh 10nM)"}]}
{"compound": "YAEGTFISDYSIAMDKIHQQDFVNWLLAQKGKKNDWKHNITQ-OH [GIP]", "values": [{"measurement": "inhibition of gastric emptying", "setting": "[3]", "result": "weakly active or inactive"}, {"measurement": "iCa", "setting": "[4]", "result": "not active"}, {"measurement": "Glucose rats", "setting": "[5]", "result": "not active"}, {"measurement": "Body Comp (mDIO)", "setting": "[6]", "result": "No effect on lean mass"}, {"measurement": "dP/dt (inotropic effect)", "setting": "[7]; [18]", "result": "positive inotropic effect"}, {"measurement": "heart rate", "setting": "[7]; [18]", "result": "chronotropic (heart rate elevating) effect"}, {"measurement": "mean arterial pressure", "setting": "[7]; [18]", "result": "no effect"}, {"measurement": "Heart Rate (rat)", "setting": "[7]; rat, summary of properties", "result": "increases"}, {"measurement": "MAP. (rat)", "setting": "[7]; rat, summary of properties", "result": "not active"}, {"measurement": "OGTT", "setting": "[8]; summary of properties", "result": "decreases"}, {"measurement": "acute food intake", "setting": "[9]", "result": "did not acutely inhibit food intake"}, {"measurement": "Food Intake", "setting": "[9]; summary of properties", "result": "not active"}, {"measurement": "glucose lowering in a diabetic mouse model", "setting": "[10]", "result": "modest and wanes over time"}, {"measurement": "Glucose mice", "setting": "[11]; mice, summary of properties", "result": "weak"}, {"measurement": "pEC(50)", "setting": "[12]; [19]", "result": 8.04}, {"measurement": "pEC(50)", "setting": "[12]; [20]", "result": 7.81}, {"measurement": "Gastric Emptying", "setting": "[13]", "result": "not active"}, {"measurement": "insulin levels prior to the glucose challenge", "setting": "[14]", "result": "significant rise in insulin levels"}, {"measurement": "insulinotropic response to an intravenous glucose challenge", "setting": "[14]", "result": "significant enhancement of the insulinotropic response"}, {"measurement": "BWt (mDIO)", "setting": "[15]; DIO mice, summary of properties", "result": "not active"}, {"measurement": "body weight change in diet-induced-obese mice", "setting": "[15]", "result": "no effect on body weight change"}]}
{"compound": "YSDGTFISDYSIAMDKlHQQDFVNWLLAQKPKKIRYS-NH2 [Compound 0601GIP4386]", "values": [{"measurement": "IC50", "setting": "[16]", "result": 156, "unit": "nM"}]}
{"compound": "YaEGTFISDYSIAMDKIHQQDFVNWLLAQKPSSGAPPPS-NH2 [Compound 0601GIP3794]", "values": [{"measurement": "dP/dt (inotropic effect)", "setting": "[7]; [18]", "result": "prolonged inotropic effect"}, {"measurement": "heart rate", "setting": "[7]; [18]", "result": "transient relative to GIP"}, {"measurement": "mean arterial pressure", "setting": "[7]; [18]", "result": "decreased mean arterial pressure"}, {"measurement": "systolic and diastolic pressures", "setting": "[7]; 80 nmol/kg, remote intravenous dosing, compared to vehicle or GIP", "result": "sustained lowering of systolic and diastolic pressures"}, {"measurement": "OGTT ED50", "setting": "[8]; mouse, in vivo", "result": "~2", "unit": "nmol/kg"}, {"measurement": "acute food intake", "setting": "[9]", "result": "did not acutely inhibit food intake"}, {"measurement": "glucose lowering in a diabetic mouse model", "setting": "[10]", "result": "pronounced and long-acting effect in lowering glucose"}, {"measurement": "Basal Glucose Lowering at 80 nmol/Kg", "setting": "[11]; AUC180", "result": -9, "unit": "%"}, {"measurement": "Basal Glucose Lowering at 80 nmol/Kg", "setting": "[11]; AUC240", "result": -7, "unit": "to-20%"}, {"measurement": "glucose lowering in normal mice", "setting": "[11]; Figures 3A and 3B, NIH/Swiss mice", "result": "significantly more efficacious than full length GIP"}, {"measurement": "glucose lowering profile", "setting": "[11]; Figures 8A and 8B, IP at t=0, 2-hour fasted NIH/Swiss mice", "result": "gradually increasing activity that peaks at t=120min"}, {"measurement": "pEC(50)", "setting": "[12]; [19]", "result": 7.93}, {"measurement": "pEC(50)", "setting": "[12]; [20]", "result": 7.53}, {"measurement": "Duration of action in assay SC inj T = -30 min", "setting": "[17]", "result": 198}, {"measurement": "Duration of action in assay SC inj T = -60 min", "setting": "[17]", "result": 159}, {"measurement": "Duration of action in assay SC inj T = -120 min", "setting": "[17]", "result": 204}, {"measurement": "Duration of action in assay SC inj T= -240 min", "setting": "[17]", "result": 79}, {"measurement": "insulin levels prior to the glucose challenge", "setting": "[14]", "result": "significant rise in insulin levels"}, {"measurement": "insulinotropic response to an intravenous glucose challenge", "setting": "[14]", "result": "significant enhancement of the insulinotropic response"}, {"measurement": "Standard IVGTT assay IV infusion (100 pmol/min/kg)", "setting": "[14]; insulin levels at 0-30 minutes as AUC, rat", "result": 249}, {"measurement": "AUC Change in Insulin Post IVGTT", "setting": "[14]; rat, in vivo", "result": "173.1+-29.4"}, {"measurement": "AUC Change in Insulin Pre IVGTT", "setting": "[14]; rat, in vivo", "result": "28.8 +-10.7"}, {"measurement": "body weight change in diet-induced-obese mice", "setting": "[15]", "result": "without a concomitant reduction in body weight"}]}
